Measured values: patent US8034781B2, “Angiotensin-(1-7) and angiotensin-(1-7) agonists for inhibition of cancer cell growth” (Wake Forest University Health Sciences, priority 2002, dated 2011)
Square brackets hold non-standard residues; d marks the D form. Ends that are not written are not given here. Sar = CNCC(=O)O

What was measured:
[1] = tested on: vascular smooth muscle cells (VSMCs); format: cell-based, Sprague-Dawley rats; conditions: for effect of antagonist on Ang-(1-7) attenuation of serum-stimulated thymidine incorporation: 1 μM Ang-(1-7), FBS (FIG. 2)
Procedure: (§1) Vascular smooth muscle cells were isolated form 12-14 week old Sprague-Dawley rats by explant culture (Freeman, E. J. et al., Hypertension, 1996, 28:104-108). Human lung and breast cancer cell lines were obtained from American Type Tissue Culture (ATTC) and included cells of the SK-LU-1 and A549 cell lines (both of which are derived from adenocarcinomas) as well as SK-MES-1 cells (derived from non-small cell lung tumors) and ZR-75-1 breast cancer cells.
(§2) Cells were grown in DMEM with 10% fetal bovine serum (FBS), […] in a humidified 37° C. incubator gassed with 5% CO2 and 95% room air. Cells were grown to subconfluence in either 24-well cluster plates or 100 mm dishes and made quiescent by treatment for 48 h with serum-depleted growth media, prior to the experiments outlined below to measure cell growth (^3H-thymidine incorporation), cell signaling or apoptosis.
To measure ^3H-thymidine incorporation, quiescent cells were incubated with serum and angiotensin peptides for 24 h at 37° C. ^3H-thymidine (0.25 μCi/well) was added and the cells incubated for an additional 4 h to incorporate the radiolabeled nucleotide. Subsequently, the cell monolayer was washed with cold phosphate-buffered saline (PBS; 50 mM NaPO4, 120 mM NaCl, pH=7.2). The adherent cells were precipitated with cold 10% TCA (4° C. for 30 min) and dissolved in 0.2% SDS in 0.1 N NaOH. Incorporated ^3H-thymidine was determined by liquid scintillation spectrometry, as previously described (Freeman, E. J. et al., Hypertension, 1996, 28:104-108). Growth inhibition was defined as a reduction in the amount of ^3H-thymidine incorporation as compared to the mitogen-stimulated controls.
During an additional 4 h, cell monolayers were pulsed with ^3H-thymidine (0.25 μCi/well) and harvested.

[2] = tested on: vascular growth stimulated by balloon catheter injury to the rat carotid artery; conditions: previous studies with rats, 24 μg/kg/hr; cited from earlier work
[3] = tested on: vascular growth stimulated by balloon catheter injury to the rat carotid artery; experiment: Balloon catheter injury to the rat carotid artery, intravenous minipump infusion; format: in vivo
Text: (§3) In these same animals, the cross-sectional area of the neointima was reduced to 0.09±0.01 mm^2 as compared to 0.12±0.02 mm^2 in saline-treated controls (p<0.05).

[4] = as above; format: in vivo; conditions: rat, plasma, 24 ug/kg/h; intravenous minipump 24 μg/kg/h, 12 days, carotid artery-injured rats
Text: as §3

[5] = tested on: ZR-75-1 breast cancer cells; format: cell-based, human
Procedure: as §1, §2
To measure ^3H-thymidine incorporation, quiescent cells were incubated with serum and angiotensin peptides for 24 h at 37° C. ^3H-thymidine (0.25 μCi/well) was added and the cells incubated for an additional 4 h to incorporate the radiolabeled nucleotide. […] Incorporated ^3H-thymidine was determined by liquid scintillation spectrometry, as previously described (Freeman, E. J. et al., Hypertension, 1996, 28:104-108). […]

AT2 angiotensin receptor = biological target: T1, AT2 angiotensin receptor (Homo sapiens, UniProt P50052); conditions: cited from earlier work
T1 sequence (P50052 1-363): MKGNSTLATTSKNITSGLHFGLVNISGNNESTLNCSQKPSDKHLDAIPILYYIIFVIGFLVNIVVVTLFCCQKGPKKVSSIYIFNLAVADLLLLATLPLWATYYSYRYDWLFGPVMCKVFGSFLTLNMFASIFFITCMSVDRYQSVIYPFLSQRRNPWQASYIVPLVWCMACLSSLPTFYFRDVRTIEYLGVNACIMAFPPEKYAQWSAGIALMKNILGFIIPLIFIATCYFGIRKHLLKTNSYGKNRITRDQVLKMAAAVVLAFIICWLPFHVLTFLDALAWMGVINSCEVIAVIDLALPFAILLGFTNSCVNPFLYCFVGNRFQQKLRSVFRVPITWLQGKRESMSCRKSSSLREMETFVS

[6] = tested on: SK-LU-1 lung cancer cells; format: cell-based, human; conditions: for effect of antagonist on inhibition of serum-stimulated growth by Ang-(1-7): SK-LU-1 (FIG. 7); for effect on serum-stimulated 3H-thymidine incorporation: SK-LU-1, peptide at 1 or 100 nM (FIG. 8)
Procedure: (§6) Cells were grown in DMEM with 10% fetal bovine serum (FBS), 100 μg/mL penicillin and 100 units/mL streptomycin in a humidified 37° C. incubator gassed with 5% CO2 and 95% room air. Cells were grown to subconfluence in either 24-well cluster plates or 100 mm dishes and made quiescent by treatment for 48 h with serum-depleted growth media, prior to the experiments outlined below to measure cell growth (^3H-thymidine incorporation), cell signaling or apoptosis.

[7] = tested on: SK-MES-1 lung cancer cells; format: cell-based, human
Procedure: as §6
To measure ^3H-thymidine incorporation, quiescent cells were incubated with serum and angiotensin peptides for 24 h at 37° C. ^3H-thymidine (0.25 μCi/well) was added and the cells incubated for an additional 4 h to incorporate the radiolabeled nucleotide. Subsequently, the cell monolayer was washed with cold phosphate-buffered saline (PBS; 50 mM NaPO4, 120 mM NaCl, pH=7.2). […] Incorporated ^3H-thymidine was determined by liquid scintillation spectrometry, as previously described (Freeman, E. J. et al., Hypertension, 1996, 28:104-108). […]

ERK1 = ERK1 phosphorylation in VSMCs, phospho-specific antibodies; format: cell-based, rat
Procedure: (§4) Reactions were terminated with Triton lysis buffer (50 mM Tris-HCl, pH 7.4, 1% Triton X-100, 100 mM NaCl, 5 mM EDTA, 50 mM NaF, 0.6 μM leupeptin, 0.01 mM Na3VO4 and 0.1 mM PMSF) and protein concentrations determined (Lowry, O. H., et al., J. Biol. Chem., 1951, 193:265-275). Proteins were separated by SDS polyacrylamide gel electrophoresis and transferred to polyvinyl membranes. The activation and autophosphorylation of ERK1 and ERK2 was determined using antibodies specific for the phosphorylated kinases (using antibodies from Cell Signaling Technologies). The immunoreactive product were visualized by enhanced chemiluminescence (ECL, Amersham) and quantified by densitometry, using the MCID image analysis system. The phospho-MAP kinase antibodies only recognize the catalytically activated and phosphorylated forms of MAP kinase (both ERK1 and ERK2 MAP kinase). The blots were also probed with antibodies to ERK1/2, to control for protein loading.
(§5) The activity of the MAP kinases ERK1 and ERK2 in VSMCs was measured using phospho-specific antibodies that only recognize the activated protein kinases.

ERK2 = ERK2 phosphorylation in VSMCs, phospho-specific antibodies; format: cell-based, rat
Procedure: as §4, §5

[8] = tested on: vascular smooth muscle cells (VSMCs); experiment: Total cell number of VSMCs by Coulter counter; format: cell-based, Sprague-Dawley rats; conditions: Ang II alone
Procedure: Total cell number in response to treatment with Ang-(1-7) was also determined using a Coulter counter. The number of cells per well increased to 142% of basal following treatment with 1% serum.

AT1 angiotensin receptor = conditions: cited from earlier work
[9] = lisinopril 20 mg/kg/day for 14 days
[10] = maximal stimulation by 1 μM Ang II

## C#CCCCCCCCCCCCCCCCC(=O)O [17-octadecynoic acid]
[1]; VSMCs, cytochrome P450 inhibitor
  effect on growth inhibition by Ang-(1-7): neither a lipoxygenase inhibitor nor the cytochrome P450 inhibitor 17-octadecynoic acid had any effect

## CC[C@H](C)[C@H](NC(=O)[C@H](Cc1ccc(O)cc1)NC(=O)[C@@H](NC(=O)[C@H](CCCNC(=N)N)NC(=O)[C@@H](N)CC(=O)O)C(C)C)C(=O)N[C@@H](Cc1c[nH]cn1)C(=O)N1CCC[C@H]1C(=O)O [Ang-(1-7), Asp-Arg-Val-Tyr-Ile-His-Pro]
[2]
  change in weight, blood pressure, or heart rate: no change
[3]; Ang-(1-7) infusion vs saline
  blood pressure: similar
  heart rate: similar
[4]
  level at time molar at 288 h: 0.131 ± 0.0397 nM
[5]
  IC50: 0.02 nM
AT2 angiotensin receptor
  IC50 levels at the AT2 angiotensin receptor: micromolar range
[6]
  IC50: 0.05 nM
[7]
  IC50: 0.4 nM

## CCc1nc2c(C)cc(C)nc2n1Cc1ccc(-c2ccccc2-c2nn[nH]n2)cc1 [L158,809]
[1]; VSMCs
  effect of antagonist on Ang-(1-7) attenuation of serum-stimulated thymidine incorporation: unaffected

## CCCCc1nc(Cl)c(CO)n1Cc1ccc(-c2ccccc2-c2nn[nH]n2)cc1 [Losartan]
[6]
  effect of antagonist on inhibition of serum-stimulated growth by Ang-(1-7): neither AT1 nor AT2 angiotensin receptor antagonists Losartan and PD123177, respectively, were effective

## Cc1cc(Cn2cnc3c2CC(C(=O)O)N(C(=O)C(c2ccccc2)c2ccccc2)C3)ccc1N (centres unmarked) [PD123177]
[1]; VSMCs
  effect of antagonist on Ang-(1-7) attenuation of serum-stimulated thymidine incorporation: unaffected
[6]
  effect of antagonist on inhibition of serum-stimulated growth by Ang-(1-7): neither AT1 nor AT2 angiotensin receptor antagonists Losartan and PD123177, respectively, were effective

## Cc1cc(Cn2cnc3c2C[C@@H](C(=O)O)N(C(=O)C(c2ccccc2)c2ccccc2)C3)ccc1N(C)C [PD 123319]
[1]; VSMCs
  effect of antagonist on Ang-(1-7) attenuation of serum-stimulated thymidine incorporation: not prevented

## CCN(CC)CC.Nc1ncnc2c1ncn2[C@@H]1O[C@@H]2COP(O)(=S)O[C@H]2[C@H]1O (some centres unmarked) [Rp-cAMPS, Rp-adenosine-3′,5′-cyclic monphosphophorothioate triethylamine salt]
[1]; VSMCs, pretreatment 10 μM (FIG. 10)
  effect on reduction in serum-stimulated 3H-thymidine incorporation by Ang-(1-7) or carbacyclin: completely blocked

## CCCCC[C@H](O)/C=C/[C@@H]1[C@H]2C/C(=C/CCCC(=O)O)C[C@H]2C[C@H]1O [carbacyclin]
[1]; VSMCs, 5 μM (FIG. 10)
  effect on serum-stimulated 3H-thymidine incorporation: reduction

## NCCCC[C@H](N[C@@H](CCc1ccccc1)C(=O)O)C(=O)N1CCC[C@H]1C(=O)O [lisinopril]
[3]; [9]
  cross-sectional area of the neointima: 0.09±0.01 mm^2
  elevation of plasma levels of Ang-(1-7) vs saline: 2.3 fold
[3]; lisinopril 20 mg/kg/day for 14 days, balloon catheter injury
  plasma levels of Ang-(1-7): 99.1 ± 6.7 pM

## Arg-Val-Tyr-Ile-His-Pro-Phe (RVYIHPF; listed as Homo sapiens) [Ang-(2-8)]
[6]
  effect on serum-stimulated 3H-thymidine incorporation: ineffective

## Asp-Arg-Val-Tyr-Ile-His-Pro-Phe (DRVYIHPF; listed as Homo sapiens) [Ang II]
ERK1; [10]
  increase in ERK1 phosphorylation over basal: 37 fold
ERK2; [10]
  increase in ERK2 phosphorylation over basal: 166 fold
[1]; peptide alone, dose response (FIG. 1)
  effect on 3H-thymidine incorporation into VSMCs: dose-dependent stimulation
[8]
  number of cells per well: 145 % of basal
[6]
  effect on serum-stimulated 3H-thymidine incorporation: ineffective

## Asp-Arg-Val-Tyr-Ile-His-[D]Ala (DRVYIH[dA]) [[D-Ala^7]-Ang-(1-7)]
AT1 angiotensin receptor
  competition at the AT1 receptor: poor competitor
[1]; VSMCs
  effect of antagonist on Ang-(1-7) attenuation of serum-stimulated thymidine incorporation: blocked
AT2 angiotensin receptor
  competition at the AT2 receptor: poor competitor
[6]
  effect of antagonist on inhibition of serum-stimulated growth by Ang-(1-7): blocked

## DRVYIHPFHL [Ang I]
[6]
  effect on serum-stimulated 3H-thymidine incorporation: ineffective

## PDGF
ERK1; 10 ng/mL PDGF
  increase of ERK1 activity over basal: 16 fold
ERK2; 10 ng/mL PDGF
  increase of ERK2 activity over basal: 26 fold

## Sar-Arg-Val-Tyr-Ile-His-Pro-Thr ([Sar]RVYIHPT) [[Sar^1-Thr^8]-Ang II]
[1]; VSMCs
  effect of antagonist on Ang-(1-7) attenuation of serum-stimulated thymidine incorporation: completely blocked

## Val-Tyr-Ile-His-Pro (VYIHP; listed as Homo sapiens) [Ang-(3-7)]
[6]
  effect on serum-stimulated 3H-thymidine incorporation: ineffective

## Val-Tyr-Ile-His-Pro-Phe (VYIHPF; listed as Homo sapiens) [Ang-(3-8)]
[6]
  effect on serum-stimulated 3H-thymidine incorporation: ineffective
